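96-well plates; 48 h exposure; 5 concentrations. Endpoints by linear interpolation between flanking doses. Not reached: highest tested concentration assigned. The concentration for full growth arrest is given as TGI.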
Columns and labels:
Assay in all cases: growth of human tumour cells (NCI), 48 h
HL-60(TB) leukemia = test system: HL-60(TB) leukemia
MCF7 breast = test system: MCF7 breast
UACC-62 melanoma = test system: UACC-62 melanoma
NCI-H460 lung = test system: NCI-H460 lung
SK-MEL-2 melanoma = test system: SK-MEL-2 melanoma
MDA-MB-231 breast = test system: MDA-MB-231 breast
HS 578T breast = test system: HS 578T breast
SF-295 CNS = test system: SF-295 CNS
OVCAR-3 ovarian = test system: OVCAR-3 ovarian
CAKI-1 renal = test system: CAKI-1 renal
SW-620 colon = test system: SW-620 colon
KM12 colon = test system: KM12 colon
ACHN renal = test system: ACHN renal
SR leukemia = test system: SR leukemia
RPMI-8226 leukemia = test system: RPMI-8226 leukemia
OVCAR-4 ovarian = test system: OVCAR-4 ovarian
HOP-62 NSCLC = test system: HOP-62 NSCLC
CCRF-CEM leukemia = test system: CCRF-CEM leukemia
A498 renal = test system: A498 renal

Structure (SMILES)	TGI (HL-60(TB) leukemia)	TGI (MCF7 breast)	TGI (UACC-62 melanoma)	TGI (NCI-H460 lung)	TGI (SK-MEL-2 melanoma)	TGI (MDA-MB-231 breast)	TGI (HS 578T breast)	TGI (SF-295 CNS)	TGI (OVCAR-3 ovarian)	TGI (CAKI-1 renal)	TGI (SW-620 colon)	TGI (KM12 colon)	TGI (ACHN renal)	TGI (SR leukemia)	TGI (RPMI-8226 leukemia)	TGI (OVCAR-4 ovarian)	TGI (HOP-62 NSCLC)	TGI (CCRF-CEM leukemia)	TGI (A498 renal)
O=C(c1ccco1)N(Cc1ccco1)C(=S)Nc1ccccc1	4.61 µM	49 µM	37.1 µM	99.8 µM	42.9 µM	41.1 µM	72 µM	> 84.1 µM	59.7 µM	22.1 µM	32.2 µM	> 100 µM	40.8 µM	13.2 µM	11.7 µM	68.1 µM	> 100 µM	18.7 µM	–
Cc1cc(NS(=O)(=O)c2ccc(NC(=O)c3ccc4[nH]c5ccccc5c(=O)c4c3)cc2)no1	> 100 µM	> 100 µM	> 100 µM	> 100 µM	> 100 µM	> 100 µM	> 100 µM	> 100 µM	> 100 µM	> 100 µM	> 100 µM	> 100 µM	> 100 µM	> 100 µM	> 100 µM	> 100 µM	> 100 µM	> 100 µM	–
CC(C)(C)OC(=O)CC(NC(=O)OC(C)(C)C)C(=O)N[C@@H]1CCCC[C@H]1C(=O)OCc1ccccc1 (some centres undefined)	68.9 µM	85.5 µM	60.8 µM	> 100 µM	61.1 µM	> 100 µM	48 µM	70.2 µM	> 100 µM	> 100 µM	> 100 µM	> 100 µM	> 100 µM	> 100 µM	95.4 µM	> 100 µM	> 100 µM	83.2 µM	–
O=Cc1c2ccccc2n2ccc3c4ccccc4[nH]c3c12	> 10 µM	> 10 µM	> 10 µM	> 10 µM	> 10 µM	> 10 µM	> 10 µM	> 10 µM	> 10 µM	> 10 µM	> 10 µM	> 10 µM	> 10 µM	> 10 µM	> 10 µM	> 10 µM	> 10 µM	> 10 µM	–
CCOC(=O)C1C(c2ccc(OC)cc2)c2c([nH]n(-c3ccccc3)c2=O)CC1(O)OCC (centres undefined)	15 µM	> 100 µM	> 100 µM	> 100 µM	> 100 µM	> 100 µM	> 100 µM	> 100 µM	> 100 µM	> 100 µM	> 100 µM	> 100 µM	> 100 µM	> 100 µM	> 100 µM	> 100 µM	> 100 µM	–	> 100 µM
O=C1CCCC2C(O)CCC[C@H]12 (some centres undefined)	> 100 µM	> 100 µM	> 100 µM	> 100 µM	> 100 µM	> 100 µM	> 100 µM	> 100 µM	–	> 100 µM	> 100 µM	> 100 µM	> 100 µM	> 100 µM	–	> 100 µM	> 100 µM	> 100 µM	–
COC(=O)C1CCOC(C)N1C(=O)OC(C)(C)C (centres undefined)	> 100 µM	> 100 µM	> 100 µM	> 100 µM	> 100 µM	> 100 µM	> 100 µM	> 100 µM	> 100 µM	> 100 µM	> 100 µM	> 100 µM	> 100 µM	> 100 µM	> 100 µM	> 100 µM	> 100 µM	> 100 µM	–
COc1cc(-c2cc(=O)c3c(OC)c(OC)c(OC)cc3o2)c(OC)c(OC)c1OC	44 µM	> 75 µM	> 75 µM	> 75 µM	> 75 µM	> 75 µM	> 75 µM	> 75 µM	> 75 µM	> 75 µM	> 75 µM	> 75 µM	> 75 µM	> 75 µM	> 75 µM	> 75 µM	> 75 µM	> 75 µM	–
O=S(=O)(O)CCCC1S(=O)(=O)OCCOS1(=O)=O	> 100 µM	> 100 µM	> 100 µM	> 100 µM	–	> 100 µM	> 100 µM	> 100 µM	> 100 µM	> 100 µM	> 100 µM	> 100 µM	> 100 µM	> 100 µM	> 100 µM	> 100 µM	> 100 µM	–	> 100 µM
C=[N+](CNC(=O)CNC(=O)C(Cc1ccc([N+](=O)[O-])cc1)NC(=O)OC(C)(C)C)C(=O)CNC(=O)C(Cc1ccc([N+](=O)[O-])cc1)NC(=O)OC(C)(C)C (centres undefined)	46.5 µM	> 100 µM	50.1 µM	> 100 µM	–	59 µM	> 100 µM	> 100 µM	> 100 µM	> 100 µM	> 100 µM	> 100 µM	> 100 µM	80.6 µM	50.4 µM	> 100 µM	> 100 µM	–	> 100 µM
Cc1ccc(S(=O)(=O)n2c3c(c4ccccc42)CCN2C(=O)C(S(=O)(=O)c4ccccc4)=CCC32)cc1 (centres undefined)	0.468 µM	0.656 µM	0.622 µM	1.51 µM	0.475 µM	0.409 µM	9.15 µM	3.49 µM	0.332 µM	0.872 µM	0.715 µM	0.645 µM	0.393 µM	0.635 µM	0.749 µM	0.436 µM	0.562 µM	–	0.582 µM

Reference: PubChem BioAssay (NCI)
